Source: patent US20110143332A1, “METHOD FOR IDENTIFYING MICROORGANISM OR DETECTING ITS MORPHOLOGY ALTERATION USING SURFACE ENHANCED RAMAN SCATTERING (SERS)” (NATIONAL YANG-MING UNIVERSITY, priority 2007, published 2011)
“Also recorded” adds a separate entry of the source. Bridge positions count the residues as written; N and C are the ends. Square brackets hold non-standard residues; d marks the D form. Peptide text beside a SMILES is read from it. * marks the point of attachment. Ileψ(thiazoline)Cys = CC[C@H](C)[C@H](N)C1=N[C@H](C(=O)*)CS1; dOrn = NCCC[C@@H](N)C(=O)O

What was measured:
Type in all cases: cell-based
[1] = test system: Enterococcus faecalis 7-18 uE; experiment: SERS monitoring of antibiotic effect on drug-resistant strain; settings: 0.5% agarose gel, FIG. 11
Protocol: (§1) Fourteen laboratory strains, Escherichia coli JM109, Escherichia coli JM109(mutant), Enterococcus faecalis 7-18 uE, Enterococcus faecium 13631, Staphylococcus aureus 13649, Staphylococcus aureus 13615, Streptococcus agalactiae 13640, Enterococcus faecalis 13641 C2, Klebsiella pneumoniae 13641 C1, Proteus mirabilis 13621 C1, Enterobacter cloacae 13457 C2, E. coli 13594 C1, E. coli 13650, Escherichia coli JM109(mutant) and E. coli 13634 were analyzed. Bacteria were grown in 5 mL of LB broth (˜6 h) to OD600=˜0.5, washed five times with PBS, and resuspended in 0.1 ml of PBS. About 3˜5 μl of the bacteria suspension is placed on the Ag/AAO substrate. 0.5% agarose gel was used to mount the bacterial samples for inhibiting the movement of bacteria. Five antibiotics: ampicillin, bacitracin, vancomycin, tetracycline and gentamycin were used in the examples. The former three could interfere with construction of the bacterial cell wall. The last two inhibited the protein synthesis in bacteria via disrupting the binding between tRNA and ribosome.
(§2) A Jobin Yvon Raman microscope (model LabRAM HR800) was used to observe the scattering excited by a 632.8 nm He—Ne laser. The spectral data acquisition time was in the 1-10 s range and the SERS spectra were obtained with a 100× microscope objective for excitation/collection. […]

[2] = test system: Escherichia coli JM109; experiment: SERS monitoring of antibiotic effect on bacteria mounted on Ag/AAO substrate; settings: 10 μg/ml ampicillin for 35 min; antibiotic susceptible strain; 0.5% agarose gel; FIG. 5
Protocol: as §1, §2

[3] = test system: Escherichia coli JM109(mutant); experiment: as above; settings: 25 μg/ml bacitracin for 48 min; antibiotic susceptible strain; 0.5% agarose gel; FIG. 6
Protocol: as §1, §2

[4] = test system: E. coli 13650; experiment: as above; settings: 25 μg/ml gentamycin for 37 min; antibiotic susceptible strain; 0.5% agarose gel; FIG. 10
Protocol: as §1, §2

CC1(C)S[C@@H]2[C@H](NC(=O)[C@H](N)c3ccccc3)C(=O)N2[C@H]1C(=O)O [ampicillin]
change of SERS spectrum (in words) ([1]; 10 μg/ml ampicillin for 35 min): No spectral changes were observed; also recorded: no changes in the spectra were observed | new peak in SERS spectrum compared with no treatment [2]: 700 cm⁻¹

CC[C@H](C)[C@H](N)C1=N[C@H](C(=O)N[C@@H](CC(C)C)C(=O)N[C@H](CCC(=O)O)C(=O)N[C@H](C(=O)N[C@H]2CCCCNC(=O)[C@H](CC(N)=O)NC(=O)[C@@H](CC(=O)O)NC(=O)[C@H](Cc3cnc[nH]3)NC(=O)[C@@H](Cc3ccccc3)NC(=O)[C@H]([C@@H](C)CC)NC(=O)[C@@H](CCCN)NC2=O)[C@@H](C)CC)CS1 [bacitracin] ({Ileψ(thiazoline)Cys}-L[dE]IK[dOrn]I[dF]H[dD]N; lactam 4-C)
change of SERS spectrum (in words) ([1]; 25 μg/ml bacitracin for 48 min): No spectral changes were observed; also recorded: no changes in the spectra were observed | new peak in SERS spectrum compared with no treatment [3]: 700 cm⁻¹

gentamycin
new peaks in SERS spectrum [4]: 418 cm⁻¹
